One data set relates to Wistar rats. Nature of the data set: Anticonflict test (water drinking behavior under electroshock). Type of data set: in vivo. Particulars: oral; for Relieving rate of anxiety: one hour before experiment, male Wistar rats; for anxiolytic effect (in words): dose of 1.0 mg/kg. As to the method:
Wistar rats (males weighing 140 to 160 g) were used for experiment in groups of 11 to 14.
Compound 1'a-1, 1'a-5, 1'b-1, 1'''-8, 1'''-9, the above comparison compound, diazepam or buspirone was suspended in a 0.5 % sodium carboxymethyl cellulose solution, and the suspension was orally given to the animal in a volume of 5 ml/kg one hour before the start of experiment.
With reference to a method described in "Process in Anxiolytics and Antidepressants," edited by Showa Ueki and Tatsuo Furukawa, Ishiyaku Shuppansha, 56∼ 59 (1981), the agents were tested using experimental boxes having grid floor and a metal drinking tube in the floor. No water was supplied to the rats for 48 hours before the experiment. Upon lapse of first 24 hours, each group of rats were placed into the experimental box, permitted access to water for 30 seconds and caused to recognize the metal drinking tube. Upon lapse of further 24 hours with access to water prevented, the rats were placed into the box again and permitted access to water on condition that an electric current was passed between the metal drinking tube and the grid to give an electroshock for every 20 times of water drinking behavior to measure the frequency of water drinking behavior for 3 minutes. Anxiolytic effect was evaluated as relieving rate of anxiety as calculated by the following equation. Relieving rate of anxiety = (C-B)/(A-B) × 100 [formula] • A: Frequency of water drinking behavior of a control group without an electroshock and no anxiety (frequency under no punishment) • B: Frequency of water drinking behavior of a group with an electroshock and anxiety (under punishment) and having been administerd a solvent containing no test compound (frequency under solvent-control group) • C: Frequency of water drinking behavior of a group having been administered a test compound and relieved anxiety (frequency under test compound-administered group) Table 7

Data set [1] concerns ddY mice. To be noted: mouse, in vivo, po, 300 mg/kg. As for the experimental part:
(§1) Compound 1'a-1, the comparison compound, diazepam or buspirone was suspended in a 0.5 % sodium carboxymethyl cellulose solution, and the suspension was orally administered to 3- to 4-week-old male ddY mice (in groups of 5) in a volume of 10 ml/kg one hour before the start of experiment.
With reference to a method described in Japan. J. Pharmacol., 49. 337∼ 349(1989), the foreleg of the mouse was hung on a horizontal wire, having a diameter of 1.2 mm and fixed at a level of 30 cm, three times consecutively. […] Thus, ED50 was determined for evaluation.

Data set [2] relates to ddY mice. To be noted: mouse, in vivo, po, 300 mg/kg. As to the method:
as §1
The test was conducted with reference to a method described in "Evaluation of Medicinal Efficacies (1), Pharmacological Test Method (I ), Basic Lectures on Development of Pharmaceuticals," 50∼ 54(1971). More specifically, the group of mice were given the test drug and thereafter measured the amount of spontaneous locomotor activity for 10 minutes per mouse using Animex MK-110 (Muromachi Kikai Co., Ltd.).
The source holds these as a separate data set.

Data set [3] concerns ddY mice. To be noted: mouse, in vivo, po, 300 mg/kg. As for the experimental part: (§2) Compound 1'a-1, the comparison compound, diazepam or buspirone was suspended in a 0.5 % sodium carboxymethyl cellulose solution, and the suspension was orally administered to 3- to 4-week-old male ddY mice (in groups of 6) in a volume of 10 ml/kg one hour before the start of experiment.
The test was conducted with reference to a method described in Japan. J. Pharmacol., 49, 337∼ 349(1989). More specifically, the group of mice were intraperitoneally given 25 % ethanol at a dose of 20 ml/kg and checked for the time interval between loss and recovery of the righting reflex.
The source holds these as a separate data set.

For data set [4], the system named is ddY mice. As to the kind of experiment: Anticonvulsant effect (pentylenetetrazol-induced convulsion method). Type of data set: in vivo. Particulars: for anticonvulsant effect: dose of 300 mg/kg, oral, male ddY mice; for ED50: Mus musculus, po, 1 h, read-out: ED50 (anticonvulsant effect). As for the experimental part: as §2
The test was conducted with reference to a method described in "Evaluation of Medicinal Efficacies (1), Pharmacological Test Method (I), Basic Lectures on Development of Pharmaceuticals," 167∼ 172(1971).

The test system of data set [5] is ddY mice. Nature of the data set: Acute toxicity test. It is filed as in vivo. Particulars: oral, 6 male ddY mice, observed for 3 days. The source says: Five-week-old male ddY mice were used in groups of 6. […]

The values that follow come from patent EP0790237B1, “BICYCLOLACTAM COMPOUNDS, USE OF THE SAME AND INTERMEDIATE IN THE PRODUCTION OF THE SAME” (TAIHO PHARMACEUTICAL CO., LTD., priority 1995, dated 1996).

Turning to `COc1ccc(C(=O)N2C(=O)CC[C@H]3[C@H](O)CC[C@H]32)cc1` (racemic) [Compound 1'a-1, (1RS, 6RS, 7RS)-7-hydroxy-2-(4-methoxybenzoyl)-2-azabicyclo-[4.3.0]nonan-3-one], the “Relieving rate of anxiety” value in the data set with Wistar rats (dose 0.01 mg/kg) is listed as 93%; in the data set on Wistar rats (dose 0.1 mg/kg), 86%; in the data set with Wistar rats (dose 1.0 mg/kg), 76%. Further, in the data set on ddY mice [1], the muscle relaxant effect entry is recorded as “no muscle relaxant effect”. Moreover, the sedative effect result with ddY mice [2] was “no sedative effect”. Besides, the ethanol enhancing effect entry in the data set with ddY mice [3] was “no ethanol enhancing effect”. For the same molecule, the anticonvulsant effect result with ddY mice [4] is listed as “no anticonvulsant effect”. Also, the Number of death in the data set on ddY mice [5] (dose 2000 mg/kg) is listed as 0; in the data set with ddY mice [5] (dose 3000 mg/kg) it was 2.
`O=C1CC2(CCCC2)CC(=O)N1CCCCN1CCN(c2ncccn2)CC1` [Buspirone]: the “Relieving rate of anxiety” value in the data set on Wistar rats (dose 1.0 mg/kg) is 2%. For the same molecule, the “anxiolytic effect (in words)” value in the data set on Wistar rats is given as “almost ineffective”. Further, the ED50 in the data set with ddY mice [4] was ≥ 300 mg/kg.
With `O=C1CC2CCCCC2N1` (stereo not shown) [Comparison Compound, 2-azabicyclo[3.4.0]nonane-3-one], the “Relieving rate of anxiety” value in the data set with Wistar rats (dose 0.01 mg/kg) is listed as 43%; in the data set on Wistar rats (dose 0.1 mg/kg), 44%; in the data set on Wistar rats (dose 1.0 mg/kg), 46%. The decreased anxiety entry in the data set with Wistar rats (doses of 0.01 to 0.1 mg/kg) is “up to 50%”. Further, in the data set on ddY mice [1], the muscle relaxant effect entry is reported as “no muscle relaxant effect”. The sedative effect result in the data set with ddY mice [2] is “no sedative effect”. For the same molecule, the ethanol enhancing effect result in the data set with ddY mice [3] was “no ethanol enhancing effect”. In addition, the anticonvulsant effect result with ddY mice [4] is “no anticonvulsant effect”. Besides, the Number of death is listed as 1 with ddY mice [5] (dose 2000 mg/kg) and 5 with ddY mice [5] (dose 3000 mg/kg).
As for `CN1C(=O)CN=C(c2ccccc2)c2cc(Cl)ccc21` [Diazepam], the “Relieving rate of anxiety” value in the data set with Wistar rats (dose 1.0 mg/kg) is -3%. For the same molecule, the “anxiolytic effect (in words)” value in the data set on Wistar rats is given as “almost ineffective”. Moreover, in the data set on ddY mice [4], the ED50 is 0.35 mg/kg.

By ED50 is commonly meant the dose at which the effect has come halfway, by size or by number of responders.
